Results reported in the NIST ThermoML archive (doi:10.1021/je900756g).
± gives the expanded uncertainty stated by the source.

Details: Liquid; for mass density: Bellows volumetry; for vapor or sublimation pressure: Closed cell (Static) method

Structure (SMILES): F/C=C/C(F)(F)F [trans-1,3,3,3-tetrafluoropropene]
- mass density (310 K, 2000 kPa): 1130.2 ± 3.4 kg/m3
- mass density (310 K, 3000 kPa): 1136.3 ± 3.4 kg/m3
- mass density (310 K, 4000 kPa): 1142.1 ± 3.4 kg/m3
- mass density (310 K, 5000 kPa): 1147.7 ± 3.6 kg/m3
- vapor or sublimation pressure (310 K): 703 ± 2 kPa
- mass density (320 K, 2000 kPa): 1093.3 ± 3.2 kg/m3
- mass density (320 K, 3000 kPa): 1100.9 ± 3.2 kg/m3
- mass density (320 K, 4000 kPa): 1108 ± 3.2 kg/m3
- mass density (320 K, 5000 kPa): 1114.7 ± 3.4 kg/m3
- vapor or sublimation pressure (320 K): 920 ± 2 kPa
- mass density (330 K, 2000 kPa): 1054.2 ± 3.2 kg/m3
- mass density (330 K, 3000 kPa): 1063.6 ± 3.4 kg/m3
- mass density (330 K, 4000 kPa): 1072.2 ± 3.4 kg/m3
- mass density (330 K, 5000 kPa): 1080 ± 3.4 kg/m3
- vapor or sublimation pressure (330 K): 1183 ± 3 kPa
- mass density (340 K, 2000 kPa): 1008.1 ± 3 kg/m3
- mass density (340 K, 3000 kPa): 1021 ± 3 kg/m3
- mass density (340 K, 4000 kPa): 1032.2 ± 3.2 kg/m3
- mass density (340 K, 5000 kPa): 1042.4 ± 3.2 kg/m3
- vapor or sublimation pressure (340 K): 1500 ± 3 kPa
- mass density (350 K, 2000 kPa): 953.6 ± 2.8 kg/m3
- mass density (350 K, 3000 kPa): 972.3 ± 3 kg/m3
- mass density (350 K, 4000 kPa): 987.6 ± 3 kg/m3
- mass density (350 K, 5000 kPa): 1000.5 ± 3.2 kg/m3
- vapor or sublimation pressure (350 K): 1876 ± 3 kPa
- mass density (360 K, 3000 kPa): 910.5 ± 2.6 kg/m3
- mass density (360 K, 4000 kPa): 934.2 ± 2.8 kg/m3
- mass density (360 K, 5000 kPa): 952.9 ± 2.8 kg/m3
- vapor or sublimation pressure (360 K): 2320 ± 4 kPa
- mass density (370 K, 3000 kPa): 821.5 ± 2.4 kg/m3
- mass density (370 K, 4000 kPa): 867.6 ± 2.6 kg/m3
- mass density (370 K, 5000 kPa): 896.7 ± 2.8 kg/m3
- vapor or sublimation pressure (370 K): 2841 ± 5 kPa
- vapor or sublimation pressure (380 K): 3458 ± 5 kPa
